In PubChem BioAssay AID2060493 (Molecular Pharmacology Branch, DTP, NCI, 2025):

Test system: 616215-338-R-J1-PDC tumor spheroids, viability
Test: Anticancer human tumor 616215-338-R-J1-PDC patient-derived colon adenocarcinoma cell line growth inhibition [GQUAD]
Settings: spheroids with HUVEC and MSC; for IC50: curve of first compound; for viability, T/C: stronger effect = lower value
In short: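 Tumor cells were grown as complex spheroids with HUVEC endothelial cells and mesenchymal stem cells as stroma. G-quadruplex stabilizers were combined with targeted agents over half-log dilutions from near the clinical Cmax, or from 10 microM.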

[1] = second compound 0.0316 µM, first compound 0.0316 µM
[2] = second compound 0.0316 µM, first compound 0.1 µM
[3] = second compound 0.0316 µM, first compound 0.316 µM
[4] = second compound 0.0316 µM, first compound 1 µM
[5] = second compound 0.0316 µM, first compound 3.16 µM
[6] = second compound 0.0316 µM, first compound 10 µM
[7] = second compound 0.1 µM, first compound 0.0316 µM
[8] = second compound 0.1 µM, first compound 0.1 µM
[9] = second compound 0.1 µM, first compound 0.316 µM
[10] = second compound 0.1 µM, first compound 1 µM
[11] = second compound 0.1 µM, first compound 3.16 µM
[12] = second compound 0.1 µM, first compound 10 µM
[13] = second compound 0.316 µM, first compound 0.0316 µM
[14] = second compound 0.316 µM, first compound 0.1 µM
[15] = second compound 0.316 µM, first compound 0.316 µM
[16] = second compound 0.316 µM, first compound 1 µM
[17] = second compound 0.316 µM, first compound 3.16 µM
[18] = second compound 0.316 µM, first compound 10 µM
[19] = second compound 1 µM, first compound 0.0316 µM
[20] = second compound 1 µM, first compound 0.1 µM
[21] = second compound 1 µM, first compound 0.316 µM
[22] = second compound 1 µM, first compound 1 µM
[23] = second compound 1 µM, first compound 3.16 µM
[24] = second compound 1 µM, first compound 10 µM
[25] = second compound 3.16 µM, first compound 0.0316 µM
[26] = second compound 3.16 µM, first compound 0.1 µM
[27] = second compound 3.16 µM, first compound 0.316 µM
[28] = second compound 3.16 µM, first compound 1 µM
[29] = second compound 3.16 µM, first compound 3.16 µM
[30] = second compound 3.16 µM, first compound 10 µM
[31] = second compound 10 µM, first compound 0.0316 µM
[32] = second compound 10 µM, first compound 0.1 µM
[33] = second compound 10 µM, first compound 0.316 µM
[34] = second compound 10 µM, first compound 1 µM
[35] = second compound 10 µM, first compound 3.16 µM
[36] = second compound 10 µM, first compound 10 µM
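Also: spheroids exposed to agents for 7 days before readout.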
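For viability, T/C in this document: percent viability relative to DMSO vehicle control wells taken as 100%.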

CC(C)(O)C1CCC(Nc2ccc3ncc(-c4cccc(C(F)(F)F)c4)n3n2)CC1 (stereo unspecified) + Cc1cnc(CNC(=O)c2c(=O)c3ccc(N4CCCN(C)CC4)nc3n3c2sc2ccccc23)cn1
IC50 (second compound 0.0316 µM): 571 nM | IC50 (second compound 0.1 µM): 352 nM | IC50 (second compound 0.316 µM): < 31.6 nM | IC50 (second compound 1 µM): < 31.6 nM | IC50 (second compound 3.16 µM): < 31.6 nM | IC50 (second compound 10 µM): < 31.6 nM | viability, T/C [1]: 96.8% | viability, T/C [2]: 86.9% | viability, T/C [3]: 82.1% | viability, T/C [4]: 19.8% | viability, T/C [5]: 1.65% | viability, T/C [6]: 2.16% | viability, T/C [7]: 67.2% | viability, T/C [8]: 73.2% | viability, T/C [9]: 53.1% | viability, T/C [10]: 13.9% | viability, T/C [11]: 4.15% | viability, T/C [12]: 1.36% | viability, T/C [13]: 36.8% | viability, T/C [14]: 50.2% | viability, T/C [15]: 37.3% | viability, T/C [16]: 14.8% | viability, T/C [17]: 0.03% | viability, T/C [18]: 2.26% | viability, T/C [19]: 32.5% | viability, T/C [20]: 32.1% | viability, T/C [21]: 28.7% | viability, T/C [22]: 13.3% | viability, T/C [23]: 0.05% | viability, T/C [24]: 0.06% | viability, T/C [25]: 20.9% | viability, T/C [26]: 24.2% | viability, T/C [27]: 29.9% | viability, T/C [28]: 3.87% | viability, T/C [29]: 0.1% | viability, T/C [30]: 0.12% | viability, T/C [31]: 19.6% | viability, T/C [32]: 24.7% | viability, T/C [33]: 27.8% | viability, T/C [34]: 0.18% | viability, T/C [35]: 0.22% | viability, T/C [36]: 0.2%

Cc1[nH]c2ccccc2c1CCNCc1ccc(/C=C/C(=O)NO)cc1 + Cc1cnc(CNC(=O)c2c(=O)c3ccc(N4CCCN(C)CC4)nc3n3c2sc2ccccc23)cn1
IC50 (second compound 0.0316 µM): 83.5 nM | IC50 (second compound 0.1 µM): 110 nM | IC50 (second compound 0.316 µM): < 0.999 nM | IC50 (second compound 1 µM): < 0.999 nM | IC50 (second compound 3.16 µM): < 0.999 nM | IC50 (second compound 10 µM): < 0.999 nM | viability, T/C (second compound 0.0316 µM, first compound 0.000999 µM): 98.6% | viability, T/C (second compound 0.0316 µM, first compound 0.00316 µM): 99.3% | viability, T/C (second compound 0.0316 µM, first compound 0.00999 µM): 101% | viability, T/C [1]: 105% | viability, T/C (second compound 0.0316 µM, first compound 0.0999 µM): 40.5% | viability, T/C [3]: 24.4% | viability, T/C (second compound 0.1 µM, first compound 0.000999 µM): 59.6% | viability, T/C (second compound 0.1 µM, first compound 0.00316 µM): 90% | viability, T/C (second compound 0.1 µM, first compound 0.00999 µM): 60.8% | viability, T/C [7]: 66.6% | viability, T/C (second compound 0.1 µM, first compound 0.0999 µM): 54.4% | viability, T/C [9]: 6.92% | viability, T/C (second compound 0.316 µM, first compound 0.000999 µM): 40.8% | viability, T/C (second compound 0.316 µM, first compound 0.00316 µM): 38.2% | viability, T/C (second compound 0.316 µM, first compound 0.00999 µM): 38.2% | viability, T/C [13]: 47.9% | viability, T/C (second compound 0.316 µM, first compound 0.0999 µM): 39.1% | viability, T/C [15]: 0.77% | viability, T/C (second compound 1 µM, first compound 0.000999 µM): 36.5% | viability, T/C (second compound 1 µM, first compound 0.00316 µM): 23.8% | viability, T/C (second compound 1 µM, first compound 0.00999 µM): 28.2% | viability, T/C [19]: 23.2% | viability, T/C (second compound 1 µM, first compound 0.0999 µM): 13.7% | viability, T/C [21]: 0.06% | viability, T/C (second compound 3.16 µM, first compound 0.000999 µM): 27.9% | viability, T/C (second compound 3.16 µM, first compound 0.00316 µM): 21.8% | viability, T/C (second compound 3.16 µM, first compound 0.00999 µM): 24.9% | viability, T/C [25]: 26.6% | viability, T/C (second compound 3.16 µM, first compound 0.0999 µM): 0.75% | viability, T/C [27]: 0.11% | viability, T/C (second compound 10 µM, first compound 0.000999 µM): 24.7% | viability, T/C (second compound 10 µM, first compound 0.00316 µM): 34.2% | viability, T/C (second compound 10 µM, first compound 0.00999 µM): 15.5% | viability, T/C [31]: 17.7% | viability, T/C (second compound 10 µM, first compound 0.0999 µM): 0.25% | viability, T/C [33]: 0.21%

O=C(NO)c1cnc(N2CCN(S(=O)(=O)c3ccc4ccccc4c3)CC2)nc1 + Cc1cnc(CNC(=O)c2c(=O)c3ccc(N4CCCN(C)CC4)nc3n3c2sc2ccccc23)cn1
IC50 (second compound 0.0316 µM): 501 nM | IC50 (second compound 0.1 µM): 147 nM | IC50 (second compound 0.316 µM): < 31.6 nM | IC50 (second compound 1 µM): < 31.6 nM | IC50 (second compound 3.16 µM): < 31.6 nM | IC50 (second compound 10 µM): < 31.6 nM | viability, T/C [1]: 101% | viability, T/C [2]: 96.1% | viability, T/C [3]: 79.9% | viability, T/C [4]: 5.15% | viability, T/C [5]: 0.03% | viability, T/C [6]: 0.07% | viability, T/C [7]: 54.1% | viability, T/C [8]: 66.6% | viability, T/C [9]: 29.4% | viability, T/C [10]: 0.37% | viability, T/C [11]: 0.03% | viability, T/C [12]: 0.07% | viability, T/C [13]: 37.2% | viability, T/C [14]: 41.2% | viability, T/C [15]: 28.5% | viability, T/C [16]: 0.06% | viability, T/C [17]: 0.02% | viability, T/C [18]: 0.06% | viability, T/C [19]: 24.7% | viability, T/C [20]: 24.8% | viability, T/C [21]: 35.1% | viability, T/C [22]: 0.04% | viability, T/C [23]: 0.03% | viability, T/C [24]: 0.08% | viability, T/C [25]: 21.9% | viability, T/C [26]: 34.8% | viability, T/C [27]: 0.18% | viability, T/C [28]: 0.07% | viability, T/C [29]: 0.07% | viability, T/C [30]: 0.09% | viability, T/C [31]: 12.2% | viability, T/C [32]: 16% | viability, T/C [33]: 0.15% | viability, T/C [34]: 0.14% | viability, T/C [35]: 0.16% | viability, T/C [36]: 0.17%
